Data from PMC9127750, “Structure-based design of CDC42 effector interaction inhibitors for the treatment of cancer” (Cell reports, 2022).
Where “and” joins values, the source holds several entries; their conditions need not be identical. Equal values may be shown once.

System: WM3248 melanoma cells, 486 antibodies
Experiment: Reverse phase protein arrays (RPPA)
Format: cell-based, Human
Conditions: 10 uM, single replicates
Description: Pellets were snap frozen in liquid nitrogen and shipped to MD Anderson Cancer Center core RPPA facility for RPPA analysis (Table S5). Three biological replicates for each sample were generated.
Nomenclatures on the RPPA heatmaps: name_of_antibody.species_of_antibody.status_of_antibody. V - antibody validated; C - validation of antibody in progress; Q - antibody nonspecific; E – under evaluation; antibodies raised in M - mouse, G - goat, R - rabbit, or T - rat.

## CN(C)c1cccc(Nc2cc(-c3ccccc3)nc(C3CCNCC3)n2)c1 [ARN22089, N1,N1-dimethyl-N3-(6-phenyl-2-(piperidin-4-yl)pyrimidin-4-yl)benzene-1,3-diamine]
  RPPA PDHA1.R.V: 0.868 and 1.050
  RPPA PDHK1.R.C: 0.847 and 0.989 and 1.019
  RPPA PDK1.R.V: 1.007 and 1.121 and 1.006
  RPPA PDK1_pS241.R.V: 0.935 and 0.909 and 0.981
  RPPA PEA.15.R.V: 0.898 and 0.934 (2×)
  RPPA PEA.15_pS116.R.V: 0.987
  RPPA PERK.R.V: 0.972 and 0.874
  RPPA PGM1.R.V: 1.007 and 0.983 and 1.004
  RPPA PHGDH.R.C: 0.889 and 1.016
  RPPA PHLPP.R.V: 1.515 and 0.856 and 0.877
  RPPA PI3K.p85.R.C: 1.113 and 1.033
  RPPA PI3K.p110.a.R.C: 0.828 and 0.921 and 0.963
  RPPA PI3K.p110.b.M.C: 0.981 and 0.937
  RPPA PKA.a.R.V: 1.016 and 0.756 and 0.860
  RPPA PKC.a.b.II_pT638_T641.R.V: 0.761 and 0.940 and 1.029
  RPPA PKC.b.II_pS660.R.V: 0.960 and 1.055
  RPPA PKCa.R.V: 1.576 and 0.715 and 0.684
  RPPA PKM2.R.C: 0.940 and 0.831 and 1.047
  RPPA PLC.gamma1.R.V: 1.302 and 0.921 and 1.027
  RPPA PLC.gamma1_pS1248.R.V: 1.246 and 0.852 and 0.899
  RPPA PLC.gamma2_pY759.R.V: 1.055 and 1.008 and 1.052
  RPPA PLK1.R.C: 1.052 and 0.570
  RPPA PMS2.R.V: 1.013 and 1.061 and 1.035
  RPPA PR.R.V: 1.051 and 1.057 and 1.083
  RPPA PRAS40.M.C: 1.053 and 1.125 and 0.970
  RPPA PRAS40_pT246.R.V: 0.997 and 0.945 and 0.929
  RPPA PRC1_pT481.R.C: 1.013
  RPPA PREX1.R.V: 0.847 and 0.880 and 1.018
  RPPA PTEN.R.V: 0.967 and 0.919
  RPPA PTPN12.R.V: 0.922 and 0.923
  RPPA PYGB.R.V: 1.000 and 1.018
  RPPA PYGM.M.C: 0.933 and 0.899 and 1.244
  RPPA Patched.R.C: 0.891 and 1.022 and 1.001
  RPPA Paxillin.R.C: 0.651 and 0.874 and 0.967
  RPPA Pdcd4.R.C: 1.032 and 0.964 and 0.935
  RPPA Porin.M.V: 0.986 and 1.054 and 1.019
  RPPA Puma.R.C: 1.032 and 0.898 and 0.973
  RPPA Pyk2_pY402.R.C: 0.958 and 0.968 and 0.955
  RPPA RBM15.R.V: 0.860 and 0.890 and 0.867
  RPPA RIP3.R.C: 0.858 and 0.945
  RPPA RIP.R.C: 0.855 and 1.003
  RPPA RPA32.R.V: 1.116 and 1.009 and 0.985
  RPPA RPA32_pS4_S8.R.C: 1.499 and 0.874 and 0.876
  RPPA RRM1.R.C: 0.796
  RPPA RRM2.R.C: 0.716 and 0.950 and 1.085
  RPPA RSK1.R.V: 1.235 and 0.841
  RPPA RSK.R.C: 1.016 and 0.831 and 0.880
  RPPA Rab11.R.C: 0.965 and 1.012 and 0.993
  RPPA Rab25.R.V: 0.970 and 0.991 and 0.975
  RPPA Rad17_pS645.R.V: 1.158
  RPPA Rad23A.R.C: 0.785 and 0.923 and 1.052
  RPPA Rad50.R.V: 1.047 and 1.001 and 0.925
  RPPA Rad51.R.C: 1.141
  RPPA Raptor.R.V: 0.898 and 0.967 and 0.952
  RPPA Rb.M.Q: 1.031
  RPPA Rb_pS807_S811.R.V: 0.993 and 0.916 and 0.946
  RPPA Rheb.M.C: 1.005
  RPPA Rictor.R.C: 0.984 and 0.977 and 0.904
  RPPA Rictor_pT1135.R.V: 1.006 and 1.049 and 1.026
  RPPA S6.M.V: 1.029 and 0.890 and 0.873
  RPPA S6_pS235_S236.R.V: 0.665 and 0.702 and 0.771
  RPPA S6_pS240_S244.R.V: 1.130 and 0.761 and 0.978
  RPPA SCD.M.V: 0.998 and 1.016
  RPPA SDHA.R.V: 0.885 and 1.085 and 0.936
  RPPA SF2.R.V: 0.975 and 1.048 and 0.992
  RPPA SFRP1.R.V: 0.871 and 0.955
  RPPA SGK1.R.V: 1.123 and 0.868
  RPPA SGK3.R.V: 0.999 and 1.114 and 0.994
  RPPA SHP2.R.V: 1.022 and 1.001 and 0.989
  RPPA SHP.2_pY542.R.C: 0.948 and 0.890 and 0.849
  RPPA SIRPαR.V: 1.018 and 0.987 and 1.021
  RPPA SLC1A5.R.C: 0.918 and 0.893 and 1.114
  RPPA SOD1.M.V: 1.011 and 1.084 and 0.999
  RPPA SOD2.R.V: 1.111 and 1.200 and 1.033
  RPPA SOX7.R.V: 1.014 and 0.995
  RPPA STING.R.V: 0.837 and 0.985 and 0.890
  RPPA Shc_pY317.R.C: 0.828 and 3.472 and 1.241
  RPPA Slfn11.G.C: 0.855 and 0.895
  RPPA Smac.M.Q: 0.941 and 1.118 and 0.934
  RPPA Smad1.R.V: 0.926 and 1.050
  RPPA Smad3.R.V: 0.971 and 0.982 (2×)
  RPPA Smad4.R.V: 1.125 and 1.111 and 0.988
  RPPA Snail.M.Q: 0.848 and 1.076 and 1.006
  RPPA Sox2.R.V: 0.994 and 0.995 and 0.973
  RPPA Sox17.R.V: 1.081 and 0.902
  RPPA Src.M.V: 0.986 and 1.228 and 1.023
  RPPA Src_pY416.R.V: 1.112 and 0.914
  RPPA Src_pY527.R.V: 1.187 and 0.891 and 0.646
  RPPA Stat1_pY701.R.V: 1.116 and 1.000 and 0.989
  RPPA Stat3.R.C: 0.928 and 0.967 and 1.021
  RPPA Stat3_pY705.R.C: 1.145 and 0.998 and 0.863
  RPPA Stat5a.R.V: 1.136 and 0.906 and 0.832
  RPPA Stathmin.1.R.V: 0.796 and 1.056 and 1.053
  RPPA Syk.M.V: 0.989 and 1.109 and 1.102
  RPPA Synaptophysin.R.C: 1.199 and 0.991
  RPPA TAZ.R.V: 0.707 and 1.122 and 1.046
  RPPA TEAD.R.C: 0.724 and 1.098 and 1.080
  RPPA TFAM.R.V: 0.916 and 0.953 and 0.872
  RPPA TFRC.R.V: 0.933 and 0.837 and 1.007
  RPPA TIGAR.R.V: 1.010 and 0.954 and 0.970
  RPPA TRAP1.M.V: 0.985
  RPPA TRIM24.R.C: 1.099 and 1.139 and 0.970
  RPPA TRIM25.R.C: 0.787 and 0.889 and 0.933
  RPPA TRIP13.R.V: 1.107 and 0.967 and 1.005
  RPPA Tau.M.C: 1.121 and 1.140
  RPPA Transglutaminase.M.V: 0.953 and 1.132 and 1.561
  RPPA level HLA.DQA1.R.V: 0.942 and 1.249 and 0.908
  RPPA level HLA.DR.DP.DQ.DX.R.C: 0.965 and 0.939
  RPPA level HMHA1.R.V: 0.904 and 1.030 and 0.992
  RPPA level HNRNPK.R.V: 1.000 and 1.157 and 1.048
  RPPA level HSP27.M.C: 1.035 and 0.965
  RPPA level HSP27_pS82.R.V: 0.973 and 1.006 and 0.985
  RPPA level HSP60.R.V: 0.817 and 0.961
  RPPA level HSP70.R.C: 0.863 and 0.990 and 0.973
  RPPA level Hexokinase.I.R.C: 1.158 and 0.954
  RPPA level Hexokinase.II.R.V: 1.125 and 0.921 and 0.919
  RPPA level Hif.1αR.C: 1.247 and 1.014 and 0.671
  RPPA level Histone.H3.R.V: 0.930 and 0.956 and 0.776
  RPPA level Histone.H3_pS10.R.V: 1.200 and 0.894 and 1.027
  RPPA level IDO.R.C: 0.882 and 1.060
  RPPA level IGF1R_pY1135_Y1136.R.V: 0.904 and 0.968 and 0.956
  RPPA level IGFBP2.R.V: 0.540 and 0.765
  RPPA level IGFBP3.M.V: 0.727 and 1.079 and 1.122
  RPPA level IGFRb.R.C: 0.931 and 1.005 and 0.850
  RPPA level IL.6.R.C: 0.856 and 0.994 and 1.019
  RPPA level IMP3.R.C: 1.033 and 1.014 and 0.956
  RPPA level INPP4b.R.C: 0.980 and 0.827
  RPPA level IR.b.R.C: 0.942 and 1.158 and 1.047
  RPPA level IRF.1.R.V: 0.733 and 0.989 and 0.863
  RPPA level IRF.3.R.V: 1.005 and 1.049 and 1.057
  RPPA level IRS1.R.V: 0.956 and 0.975 and 0.990
  RPPA level IRS2.R.C: 1.250 and 0.922 and 0.822
  RPPA level JAB1.M.C: 0.937 and 1.033
  RPPA level JNK2.R.V: 0.765 and 3.367 and 1.426
  RPPA level JNK_pT183_Y185.R.C: 0.982 and 0.932 and 1.030
  RPPA level Jagged1.R.V: 0.877 and 1.048
  RPPA level Jak2.R.V: 0.931 (2×) and 1.019
  RPPA level KAP1.R.V: 1.035 and 0.844 and 0.861
  RPPA level KEAP1.R.V: 1.174 and 0.839
  RPPA level LAD1.R.V: 0.772 and 1.056 and 1.078
  RPPA level LC3A.B.R.C: 1.052 and 0.957 and 0.853
  RPPA level LCN2.R.V: 2.061 and 0.840 and 0.854
  RPPA level LDHA.R.C: 0.770 and 1.150
  RPPA level LRP6_pS1490.R.V: 0.906 and 0.988 and 0.894
  RPPA level Lasu1.R.V: 1.033 and 1.132 and 1.052
  RPPA level Lck.R.V: 0.988 and 0.991 and 0.942
  RPPA level Lyn.R.V: 1.113 and 1.221 and 0.942
  RPPA level MACC1.R.V: 1.081 and 1.061 and 1.005
  RPPA level MAPK_pT202_Y204.R.C: 0.770 and 0.851 and 1.246
  RPPA level MCT4.R.V: 0.673 and 0.768 and 1.020
  RPPA level MDM2_pS166.R.V: 1.142 and 0.902
  RPPA level MEK1.R.V: 2.774 and 0.771 and 0.759
  RPPA level MEK1_pS217_S221.R.V: 1.065 and 0.907 and 1.005
  RPPA level MEK2.R.V: 0.928 and 1.010 and 0.996
  RPPA level MERIT40.R.C: 0.985
  RPPA level MERIT40_pS29.R.V: 0.918 and 1.049
  RPPA level METTL3.R.V: 1.128 and 1.097 and 0.930
  RPPA level MIF.R.C: 1.023 and 1.117 and 1.048
  RPPA level MIG6.R.V: 0.921 and 1.139 and 1.007
  RPPA level MITF.R.V: 1.105 and 1.065 and 0.952
  RPPA level MLH1.M.V: 1.000 and 0.967
  RPPA level MLKL.R.V: 0.819 and 0.881 and 1.048
  RPPA level MMP2.R.V: 1.026 and 0.968 and 0.958
